The text below walks through data of paper PMC12640828 (Frontiers in Pharmacology, 2025).

Bounds are passed on as bounds.

Data set [1] relates to TAC pressure-overload induced HF in mice. The data set can be described thus: TAC pressure-overload heart failure in mice: echocardiography and heart weight. It is filed as in vivo, male C57BL/6 mice. The conditions noted are these: 3.6 mg/kg/mouse s.c. on alternate days for 28 days. How it is done: Eight-week-old male C57BL/6 mice, purchased from Charles River Laboratories (Wilmington, MA), were housed in the institutional animal facility on a 12 h light/12 h dark cycle with free access to food and water throughout. Animal protocols were approved by the University of South Carolina-Institutional Animal Care and Use Committee (IACUC) following the NIH guidelines.
A transverse aortic constriction (TAC) procedure was followed to induce pressure-overload HF in mice ([Li et al., 2013]; [Kumar et al., 2019b]; [Kumar et al., 2020]). Briefly, mice were anesthetized under 1%–2% isoflurane and the chests of these mice were opened through the suprasternal notch. A 7–0 polypropylene suture was passed under the aortic arch between the left common carotid and innominate arteries and tied around the aorta and a 27-G needle. After tying a knot, the needle was removed, and the chest was closed using a 6–0 suture. Mice were kept on the 37 °C heat pad until they recovered and buprenorphine (0.1 mg/kg/mouse) was given subcutaneously (s.c.) as post-operative care. An identical procedure except tying a knot around the aortic arch was performed in the Sham groups of mice. Two days post-TAC, mice were divided into four groups (6–7 mice/gr): i- Sham, ii- Sham+NMEG-CGRP, iii- TAC, and iv- TAC+NMEG-CGRP. A stock solution 1 mg/mL of NMEG-CGRP was prepared in sterile 0.9% NaCl soln and NMEG-CGRP at 3.6 mg/kg/mouse dose was injected s.c. in the Sham+NMEG-CGRP and TAC+NMEG-CGRP groups of mice on alternate days for a total of 28 days. […]
The short axis 2D echocardiography was performed before TAC procedure (day 0) and then weekly after start of NMEG-CGRP administration in all groups of mice under 1%–2% isoflurane anesthesia using Vevo 3100 High-Resolution Imaging System (VisualSonics Inc., Toronto, Canada) and cardiac parameters were calculated using VisualSonics Measurement Software ([Li et al., 2013]; [Kumar et al., 2020]).

For data set [2], the target named is T1, insulin-degrading enzyme (IDE) (Homo sapiens, UniProt P14735).
T1 construct: purchased R&D Systems, Minneapolis, MN
T1 sequence (P14735 1-1019): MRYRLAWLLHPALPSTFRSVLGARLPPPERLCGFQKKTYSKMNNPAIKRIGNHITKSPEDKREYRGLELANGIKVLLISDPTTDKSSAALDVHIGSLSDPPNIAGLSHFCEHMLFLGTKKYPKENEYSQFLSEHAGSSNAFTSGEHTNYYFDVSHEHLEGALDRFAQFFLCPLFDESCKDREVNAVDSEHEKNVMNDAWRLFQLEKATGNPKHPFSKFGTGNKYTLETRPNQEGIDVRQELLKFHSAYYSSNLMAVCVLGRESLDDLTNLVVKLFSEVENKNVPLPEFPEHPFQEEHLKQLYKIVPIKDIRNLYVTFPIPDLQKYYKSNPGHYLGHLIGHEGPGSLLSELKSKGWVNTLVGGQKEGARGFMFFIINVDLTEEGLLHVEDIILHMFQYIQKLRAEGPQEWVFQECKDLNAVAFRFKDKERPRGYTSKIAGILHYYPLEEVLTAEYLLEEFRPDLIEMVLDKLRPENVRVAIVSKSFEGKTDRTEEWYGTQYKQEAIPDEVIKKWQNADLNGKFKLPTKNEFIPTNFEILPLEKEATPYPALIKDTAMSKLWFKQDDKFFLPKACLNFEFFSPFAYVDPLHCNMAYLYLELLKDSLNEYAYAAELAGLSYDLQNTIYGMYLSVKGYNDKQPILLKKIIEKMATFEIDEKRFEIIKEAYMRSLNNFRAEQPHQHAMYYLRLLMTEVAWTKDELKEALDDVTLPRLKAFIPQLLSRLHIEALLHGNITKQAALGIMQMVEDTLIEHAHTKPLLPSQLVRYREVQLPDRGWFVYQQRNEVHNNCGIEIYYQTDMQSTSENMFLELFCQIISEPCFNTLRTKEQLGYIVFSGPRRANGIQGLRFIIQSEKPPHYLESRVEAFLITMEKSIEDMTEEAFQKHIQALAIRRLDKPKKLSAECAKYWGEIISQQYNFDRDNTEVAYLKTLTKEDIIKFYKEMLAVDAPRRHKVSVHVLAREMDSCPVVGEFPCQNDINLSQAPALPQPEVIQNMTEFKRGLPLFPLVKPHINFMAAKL
The data set can be described thus: In vitro peptide digestion with IDE followed by LC-MS. Particulars: 100 µM peptide, 0.1 µg IDE, 50 mM Tris-Cl pH 7.5 + 1M NaCl, 25 µL, 37 °C, sampled at 5, 30, 60 min. It is filed as in vitro ADME. As to the method:
An equal volume (25 µL) of 10% formic acid (Sigma) was added. After heating the reaction at 95 °C for 5 min, desalting of the peptides was carried out using Pierce C18 tips (87782; ThermoFisher Scientific). For peptide-desalting, 30 µL of 2.5% trifluoroacetic acid (TFA) was added in a total 50 µL of the peptide-digestion reaction. Pierce C18 tips were wetted in 50% acetonitrile:water soln, equilibrated with 0.1% TFA, and peptides were passed through the C18 tips. After washing the C18 tips with 0.1% TFA in 5% acetonitrile:water soln, peptides were eluted in 10 µL of 0.1% formic acid in 75% acetonitrile: water soln and stored at −80 °C. Desalted peptide samples were submitted for Liquid Chromatography Mass Spectrometry (LC-MS) analysis to the University of South Carolina-Mass Spectrometry Center.

In data set [3] the test system is Rat cardiac H9C2 cells. Briefly: MTT-cell viability assay. It is filed as cell-based. The conditions noted are these: 1 μM, 3 μM and 10 µM, 4 days, MTT colorimetric. How it is done: The rat cardiac H9C2 cells were maintained in Dulbecco’s Modified Eagle Medium (DMEM) cell culture medium (supplemented with 10% fetal bovine serum, 4.5 gm/liter D-glucose, and 1x penicillin-streptomycin antibiotic solution) and grown at 37 °C in a humidified incubator with 5% CO2. Cells in a 96-well plate were treated with 1 μM, 3 μM, and 10 µM concentrations of NMEG-CGRP and CMEG-CGRP and further grown for 4 days. The cell viability assay was performed using colorimetric MTT-cell proliferation kit I (Roche-Millipore Sigma, St Louis, MO) following the vendor’s protocol.

Data set [4] can be described thus: Solubility in water. The data set is classed as physicochemical.

For the compound `COCCNCC(=O)N(CCOC)CC(=O)N[C@@H](C)C(=O)N[C@H]1CSSC[C@@H](C(=O)N[C@H](C(=O)N[C@H](C(=O)N[C@@H](Cc2c[nH]cn2)C(=O)N[C@@H](CCCNC(=N)N)C(=O)N[C@@H](CC(C)C)C(=O)N[C@@H](C)C(=O)NCC(=O)N[C@@H](CC(C)C)C(=O)N[C@@H](CC(C)C)C(=O)N[C@@H](CO)C(=O)N[C@@H](CCCNC(=N)N)C(=O)N[C@@H](CO)C(=O)NCC(=O)NCC(=O)N[C@H](C(=O)N[C@H](C(=O)N[C@@H](CCCCN)C(=O)N[C@@H](CC(N)=O)C(=O)N[C@@H](CC(N)=O)C(=O)N[C@@H](Cc2ccccc2)C(=O)N[C@H](C(=O)N2CCC[C@H]2C(=O)N[C@H](C(=O)N[C@@H](CC(N)=O)C(=O)N[C@H](C(=O)NCC(=O)N[C@@H](CO)C(=O)N[C@@H](CCCCN)C(=O)N[C@@H](C)C(=O)N[C@@H](Cc2ccccc2)C(N)=O)C(C)C)[C@@H](C)O)C(C)C)C(C)C)C(C)C)[C@@H](C)O)C(C)C)NC(=O)[C@H]([C@@H](C)O)NC(=O)[C@H](C)NC(=O)[C@H]([C@@H](C)O)NC(=O)[C@H](CC(=O)O)NC1=O` [NMEG-CGRP], the “Abnormalities / adverse effect in mice during NMEG-CGRP delivery” value in data set [1] (Sham- and TAC-mice) was “did not observe any abnormalities”. Moreover, in data set [1] (sham mice, day 30), the “EF, Sham vs. Sham+NMEG-CGRP” value is given as “non-significant” and the “Fractional shortening (FS), Sham vs. Sham+NMEG-CGRP” value is “non-significant”. Also, the “Time to complete digestion of full-length peptide by IDE” value in data set [2] is given as more than 60 min. Also, the “Viability of cardiac cells (MTT optical density vs control)” value in data set [3] is “did not inhibit the growth of H9C2 cells”. In addition, in data set [4], the Solubility in water entry is given as “soluble in water”.

As to `CC(C)C[C@H](NC(=O)CNC(=O)[C@H](C)NC(=O)[C@H](CC(C)C)NC(=O)[C@H](CCCNC(=N)N)NC(=O)[C@H](Cc1cnc[nH]1)NC(=O)[C@@H](NC(=O)[C@@H](NC(=O)[C@@H]1CSSC[C@H](NC(=O)[C@H](C)N)C(=O)N[C@@H](CC(=O)O)C(=O)N[C@@H]([C@@H](C)O)C(=O)N[C@@H](C)C(=O)N[C@@H]([C@@H](C)O)C(=O)N1)C(C)C)[C@@H](C)O)C(=O)N[C@@H](CC(C)C)C(=O)N[C@@H](CO)C(=O)N[C@@H](CCCNC(=N)N)C(=O)N[C@@H](CO)C(=O)NCC(=O)NCC(=O)N[C@H](C(=O)N[C@H](C(=O)N[C@@H](CCCCN)C(=O)N[C@@H](CC(N)=O)C(=O)N[C@@H](CC(N)=O)C(=O)N[C@@H](Cc1ccccc1)C(=O)N[C@H](C(=O)N1CCC[C@H]1C(=O)N[C@H](C(=O)N[C@@H](CC(N)=O)C(=O)N[C@H](C(=O)NCC(=O)N[C@@H](CO)C(=O)N[C@@H](CCCCN)C(=O)N[C@@H](C)C(=O)N[C@@H](Cc1ccccc1)C(N)=O)C(C)C)[C@@H](C)O)C(C)C)C(C)C)C(C)C` [human α-CGRP, reference compound], in data set [2], the “Time to complete digestion of full-length peptide by IDE” value lay in the range of 5 to 30 min.
